± gives the expanded uncertainty stated by the source.

Experimental findings from the NIST ThermoML archive (doi:10.1021/acs.jced.8b01220) are described below.

The conditions of this series: Crystal; DSC.

Take `CC(C)(N)CO` [2-amino-2-methylpropan-1-ol]: the Triple point temperature was determined as 295.75 ± 2 K.
